Key:
[1] = target: T1, cGMP-dependent protein kinase 2 (Homo sapiens) (UniProt Q13237); test: Selectivity interaction (Ambit KINOMEscan and KiNATiv profiling in Jurkat cells) EUB0000090b PRKG2; type: cell-based; conditions: at 1 µM
T1 sequence (whole entry): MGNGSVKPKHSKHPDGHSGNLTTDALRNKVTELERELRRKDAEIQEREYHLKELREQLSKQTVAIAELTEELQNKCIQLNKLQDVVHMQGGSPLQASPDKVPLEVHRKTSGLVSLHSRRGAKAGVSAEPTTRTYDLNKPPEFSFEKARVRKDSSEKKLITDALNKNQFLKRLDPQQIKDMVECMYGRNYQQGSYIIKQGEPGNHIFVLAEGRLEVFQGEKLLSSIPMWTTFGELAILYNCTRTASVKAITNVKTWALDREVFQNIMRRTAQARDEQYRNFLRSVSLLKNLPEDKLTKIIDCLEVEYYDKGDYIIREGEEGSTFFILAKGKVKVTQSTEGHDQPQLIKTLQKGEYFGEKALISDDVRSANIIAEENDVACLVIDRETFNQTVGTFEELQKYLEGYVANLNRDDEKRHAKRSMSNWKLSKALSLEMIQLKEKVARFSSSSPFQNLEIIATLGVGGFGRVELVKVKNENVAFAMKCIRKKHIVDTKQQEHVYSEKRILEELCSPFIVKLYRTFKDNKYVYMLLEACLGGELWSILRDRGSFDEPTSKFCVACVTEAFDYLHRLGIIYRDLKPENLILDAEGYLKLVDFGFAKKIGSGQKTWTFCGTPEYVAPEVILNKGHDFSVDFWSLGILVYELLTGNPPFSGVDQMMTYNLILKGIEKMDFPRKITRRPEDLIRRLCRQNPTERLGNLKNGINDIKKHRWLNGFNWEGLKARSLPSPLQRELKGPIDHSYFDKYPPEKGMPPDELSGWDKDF

[2] = target: Dual specificity mitogen-activated protein kinase kinase 2 (Homo sapiens) (UniProt P36507); test: Selectivity interaction (KinomeScan (DiscoverX)) EUB0000229b MAP2K2; conditions: at 10 µM
[3] = target: T2, Cyclin-G-associated kinase (Homo sapiens) (UniProt O14976); test: Selectivity interaction (KinomeScan (DiscoverX)) EUB0001049a GAK; conditions: at 1 µM
T2 sequence (whole entry): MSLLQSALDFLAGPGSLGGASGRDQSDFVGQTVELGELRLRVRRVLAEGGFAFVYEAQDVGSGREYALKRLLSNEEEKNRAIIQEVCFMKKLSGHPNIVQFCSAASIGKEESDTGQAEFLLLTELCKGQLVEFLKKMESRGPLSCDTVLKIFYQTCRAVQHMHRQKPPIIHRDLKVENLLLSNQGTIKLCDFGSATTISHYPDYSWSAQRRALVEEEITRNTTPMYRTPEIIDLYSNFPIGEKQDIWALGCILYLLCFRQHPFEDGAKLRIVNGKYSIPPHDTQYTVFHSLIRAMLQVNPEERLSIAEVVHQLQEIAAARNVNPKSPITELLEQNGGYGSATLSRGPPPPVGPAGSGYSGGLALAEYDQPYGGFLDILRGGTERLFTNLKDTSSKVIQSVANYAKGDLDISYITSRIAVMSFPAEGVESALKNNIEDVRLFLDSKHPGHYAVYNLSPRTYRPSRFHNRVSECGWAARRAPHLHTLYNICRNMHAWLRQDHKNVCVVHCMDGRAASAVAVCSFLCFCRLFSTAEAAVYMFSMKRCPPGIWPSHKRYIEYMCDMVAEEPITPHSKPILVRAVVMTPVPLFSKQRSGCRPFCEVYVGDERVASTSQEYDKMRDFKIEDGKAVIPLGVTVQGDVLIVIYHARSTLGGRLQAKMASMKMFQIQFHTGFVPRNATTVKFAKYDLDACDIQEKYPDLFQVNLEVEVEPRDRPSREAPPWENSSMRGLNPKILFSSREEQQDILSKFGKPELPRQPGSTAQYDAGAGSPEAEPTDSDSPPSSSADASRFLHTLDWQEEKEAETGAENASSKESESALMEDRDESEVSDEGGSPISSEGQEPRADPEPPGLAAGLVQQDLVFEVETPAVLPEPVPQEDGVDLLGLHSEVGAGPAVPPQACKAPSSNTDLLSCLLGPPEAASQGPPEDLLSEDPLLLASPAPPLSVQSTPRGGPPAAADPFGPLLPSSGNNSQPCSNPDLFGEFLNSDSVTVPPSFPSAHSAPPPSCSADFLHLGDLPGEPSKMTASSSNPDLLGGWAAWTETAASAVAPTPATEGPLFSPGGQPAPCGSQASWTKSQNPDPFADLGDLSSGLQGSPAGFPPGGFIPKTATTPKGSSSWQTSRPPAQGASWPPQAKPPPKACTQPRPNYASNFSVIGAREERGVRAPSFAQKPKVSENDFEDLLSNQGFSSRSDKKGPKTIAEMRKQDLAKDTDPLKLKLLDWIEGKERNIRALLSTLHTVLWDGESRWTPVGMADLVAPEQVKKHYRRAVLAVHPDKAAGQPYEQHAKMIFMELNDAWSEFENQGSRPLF

[4] = target: T3, Phosphatidylinositol 5-phosphate 4-kinase type-2 beta (Homo sapiens) (UniProt P78356); test: Selectivity interaction (KinomeScan (DiscoverX)) EUB0001049a PIP4K2B; conditions: at 1 µM
T3 sequence (whole entry): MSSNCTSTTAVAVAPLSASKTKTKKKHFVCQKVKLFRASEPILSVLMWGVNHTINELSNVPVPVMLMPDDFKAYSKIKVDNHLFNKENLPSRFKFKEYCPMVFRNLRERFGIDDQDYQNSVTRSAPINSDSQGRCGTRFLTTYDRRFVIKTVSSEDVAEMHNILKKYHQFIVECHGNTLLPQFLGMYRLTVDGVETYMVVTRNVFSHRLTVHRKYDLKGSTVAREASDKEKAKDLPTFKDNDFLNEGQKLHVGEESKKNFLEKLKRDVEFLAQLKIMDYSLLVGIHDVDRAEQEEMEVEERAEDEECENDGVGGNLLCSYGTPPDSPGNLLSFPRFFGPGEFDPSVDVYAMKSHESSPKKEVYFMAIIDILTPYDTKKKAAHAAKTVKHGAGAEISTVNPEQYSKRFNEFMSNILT

Dual specificity mitogen-activated protein kinase kinase 2 (Homo sapiens), sequence (P36507 whole entry): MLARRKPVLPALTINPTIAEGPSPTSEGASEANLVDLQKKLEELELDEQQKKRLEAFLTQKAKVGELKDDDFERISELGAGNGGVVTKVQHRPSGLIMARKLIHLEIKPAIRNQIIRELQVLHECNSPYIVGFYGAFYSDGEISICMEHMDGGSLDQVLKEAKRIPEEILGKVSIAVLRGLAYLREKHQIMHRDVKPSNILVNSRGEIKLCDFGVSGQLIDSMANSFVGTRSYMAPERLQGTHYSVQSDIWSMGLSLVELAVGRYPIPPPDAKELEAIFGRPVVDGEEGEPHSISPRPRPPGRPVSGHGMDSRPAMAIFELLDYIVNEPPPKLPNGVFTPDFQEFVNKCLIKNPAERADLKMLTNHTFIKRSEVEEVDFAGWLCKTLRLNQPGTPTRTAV

CN(C)C/C=C/C(=O)Nc1ccc(C(=O)N2CCCC(Nc3ncc(Cl)c(-c4c[nH]c5ccccc45)n3)C2)cc1 (centres undefined)
% of control [1]: 95%

COc1cc(N(C)c2ccnc3ccc(C(F)(F)F)cc23)cc(OC)c1OC
% binding [2]: 68%

COc1cc(Nc2nc(C)cc(-c3cnn4nc(OC)ccc34)n2)cc(C(F)(F)F)c1
% of control [3]: 87%
% of control [4]: 96%
